The values below come from ChEMBL document CHEMBL1201862, “PubChem BioAssay data set” (2004).

Calls of active or inactive are those of the source.

Test [1] deals with Glucose-6-phosphate 1-dehydrogenase (Homo sapiens, UniProt P11413). Description: inhibition of Homo sapiens G6PD, dose series – biochemical, fluorescence, selectivity assay for P. falciparum G6PD inhibitor project, dose response (AID 504792). Type of test: functional.
Test [2] addresses T1, Replicative DNA helicase DnaB (Mycobacterium tuberculosis, UniProt P9WMR3).
T1 sequence (P9WMR3 whole entry): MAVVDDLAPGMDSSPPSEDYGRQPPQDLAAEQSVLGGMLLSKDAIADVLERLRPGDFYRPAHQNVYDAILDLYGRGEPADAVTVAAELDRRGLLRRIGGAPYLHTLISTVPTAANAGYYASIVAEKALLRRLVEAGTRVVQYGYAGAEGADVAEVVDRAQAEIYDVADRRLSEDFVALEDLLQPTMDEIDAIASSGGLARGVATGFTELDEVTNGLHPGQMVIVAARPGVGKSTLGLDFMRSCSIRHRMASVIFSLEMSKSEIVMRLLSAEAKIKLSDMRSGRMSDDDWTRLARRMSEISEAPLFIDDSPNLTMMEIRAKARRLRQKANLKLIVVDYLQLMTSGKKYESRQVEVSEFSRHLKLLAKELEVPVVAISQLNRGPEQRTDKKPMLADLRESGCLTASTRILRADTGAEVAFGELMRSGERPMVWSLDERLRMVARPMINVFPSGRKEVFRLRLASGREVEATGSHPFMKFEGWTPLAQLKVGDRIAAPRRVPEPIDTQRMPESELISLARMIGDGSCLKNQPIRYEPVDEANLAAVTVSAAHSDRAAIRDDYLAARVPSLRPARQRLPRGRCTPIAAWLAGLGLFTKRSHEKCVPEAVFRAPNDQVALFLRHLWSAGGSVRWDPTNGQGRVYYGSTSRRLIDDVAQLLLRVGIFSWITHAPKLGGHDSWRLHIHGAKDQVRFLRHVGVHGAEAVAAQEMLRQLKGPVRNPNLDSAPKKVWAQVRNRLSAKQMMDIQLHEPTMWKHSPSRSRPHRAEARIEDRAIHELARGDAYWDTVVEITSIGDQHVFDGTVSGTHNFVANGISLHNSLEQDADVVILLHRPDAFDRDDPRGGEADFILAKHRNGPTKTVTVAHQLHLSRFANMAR
Description: DnaB intein splicing inhibitors, dose response, biochemical, cell-free fluorescence (AID 449749). The format is functional.

Test [3] is described as follows: viability of HCT116 lacking mutant beta-catenin – cell-based, human colon tumor, dose response (AID 1045).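 Note: HCT116 colon tumor cells with beta catenin knocked out; cells exposed to compound for 60 hours.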 Type of test: functional.
The nature of test [4]: decrease of insulin promoter-GFP reporter – imaging, high-content screening, mouse beta cells (AID 1628). Type of test: functional. The following applies: MIN6.
Another test has as its target Estrogen receptor beta (Homo sapiens, UniProt Q92731).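 Note: recombinant ER-beta bound to coactivator SRC1 peptide in presence of estradiol agonist; inhibitors block coactivator peptide binding and lower the FRET signal.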
Test [5] has as its target T2, Apoptotic protease-activating factor 1 (Homo sapiens, UniProt O14727).
T2 sequence (O14727 whole entry): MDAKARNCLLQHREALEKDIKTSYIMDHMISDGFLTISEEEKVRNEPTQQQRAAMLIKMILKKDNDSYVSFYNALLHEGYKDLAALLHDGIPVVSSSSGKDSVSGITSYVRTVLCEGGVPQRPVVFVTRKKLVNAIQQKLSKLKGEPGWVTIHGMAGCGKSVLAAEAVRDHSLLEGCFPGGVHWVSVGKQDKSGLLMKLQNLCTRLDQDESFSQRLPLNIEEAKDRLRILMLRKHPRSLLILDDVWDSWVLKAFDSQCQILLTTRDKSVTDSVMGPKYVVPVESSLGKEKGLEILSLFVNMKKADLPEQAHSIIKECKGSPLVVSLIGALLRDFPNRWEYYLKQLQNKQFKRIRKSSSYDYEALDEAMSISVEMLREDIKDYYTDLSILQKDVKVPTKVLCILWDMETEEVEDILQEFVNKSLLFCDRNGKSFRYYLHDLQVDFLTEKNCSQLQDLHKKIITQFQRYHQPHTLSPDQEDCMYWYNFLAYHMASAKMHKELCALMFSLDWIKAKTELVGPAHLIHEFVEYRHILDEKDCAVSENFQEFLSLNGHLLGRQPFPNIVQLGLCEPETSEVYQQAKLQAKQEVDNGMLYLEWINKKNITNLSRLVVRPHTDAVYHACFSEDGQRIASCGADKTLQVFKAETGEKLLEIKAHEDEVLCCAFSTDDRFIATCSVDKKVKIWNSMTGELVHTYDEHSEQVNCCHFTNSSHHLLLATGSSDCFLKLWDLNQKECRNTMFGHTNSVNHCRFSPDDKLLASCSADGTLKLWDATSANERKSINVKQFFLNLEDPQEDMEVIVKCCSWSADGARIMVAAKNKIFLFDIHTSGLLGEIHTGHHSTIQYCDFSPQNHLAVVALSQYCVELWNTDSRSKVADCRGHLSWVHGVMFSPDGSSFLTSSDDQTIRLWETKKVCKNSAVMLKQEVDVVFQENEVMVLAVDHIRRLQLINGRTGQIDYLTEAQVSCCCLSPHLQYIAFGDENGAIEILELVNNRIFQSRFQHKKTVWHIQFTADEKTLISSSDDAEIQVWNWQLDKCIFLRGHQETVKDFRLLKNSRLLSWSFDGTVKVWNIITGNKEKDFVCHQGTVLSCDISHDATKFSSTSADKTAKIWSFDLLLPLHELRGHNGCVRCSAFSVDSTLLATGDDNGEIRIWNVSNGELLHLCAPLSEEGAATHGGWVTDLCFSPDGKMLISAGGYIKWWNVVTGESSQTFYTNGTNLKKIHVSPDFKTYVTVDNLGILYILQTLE
The format is functional.

Estrogen receptor beta, sequence (Q92731 whole entry): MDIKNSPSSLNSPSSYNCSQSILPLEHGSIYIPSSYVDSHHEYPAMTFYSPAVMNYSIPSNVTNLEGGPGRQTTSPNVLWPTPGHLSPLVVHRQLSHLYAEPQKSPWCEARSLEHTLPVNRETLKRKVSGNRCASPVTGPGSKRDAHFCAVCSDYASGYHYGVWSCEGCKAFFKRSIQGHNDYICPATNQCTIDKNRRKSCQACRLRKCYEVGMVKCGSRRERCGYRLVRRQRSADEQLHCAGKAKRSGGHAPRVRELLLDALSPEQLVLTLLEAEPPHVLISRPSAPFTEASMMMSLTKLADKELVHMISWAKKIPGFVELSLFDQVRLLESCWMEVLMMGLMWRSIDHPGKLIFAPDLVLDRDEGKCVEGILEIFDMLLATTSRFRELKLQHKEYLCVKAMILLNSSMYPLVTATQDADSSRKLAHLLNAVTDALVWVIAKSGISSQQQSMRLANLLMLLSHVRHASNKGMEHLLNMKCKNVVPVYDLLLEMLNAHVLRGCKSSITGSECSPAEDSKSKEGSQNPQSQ
Glucose-6-phosphate 1-dehydrogenase, sequence (P11413 whole entry): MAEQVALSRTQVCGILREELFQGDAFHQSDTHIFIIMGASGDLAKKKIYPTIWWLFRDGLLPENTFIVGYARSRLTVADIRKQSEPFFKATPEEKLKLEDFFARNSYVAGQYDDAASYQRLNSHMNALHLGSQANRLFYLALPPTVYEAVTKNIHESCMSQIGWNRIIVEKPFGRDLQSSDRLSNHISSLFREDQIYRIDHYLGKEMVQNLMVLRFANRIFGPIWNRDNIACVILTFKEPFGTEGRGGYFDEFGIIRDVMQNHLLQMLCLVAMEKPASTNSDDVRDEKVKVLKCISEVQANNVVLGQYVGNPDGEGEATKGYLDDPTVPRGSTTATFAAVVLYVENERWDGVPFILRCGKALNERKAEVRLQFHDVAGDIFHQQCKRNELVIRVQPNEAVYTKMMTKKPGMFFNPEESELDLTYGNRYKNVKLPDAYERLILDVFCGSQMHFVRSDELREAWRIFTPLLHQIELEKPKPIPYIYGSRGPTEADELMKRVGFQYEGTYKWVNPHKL

Usually IC50 stands for the point on the concentration scale where inhibition reaches its midpoint. The AC50 is the midpoint of the concentration-response curve, whichever way the signal moves. By EC50 is commonly meant the midpoint of the concentration-response curve. As to `COc1ccc(C(=O)c2c(C(F)(F)F)oc3c2C(=O)c2ccccc2C3=O)cc1`, the IC50 in test [1] was > 80 µM (inactive); in test [4] it was 3.05 µM (active); against Estrogen receptor beta, > 50 µM (not active); in test [5], 5.29 µM (active). In addition, the AC50 in test [2] was 164 nM (active). In test [3], the EC50 is 2.55 µM (active).
